Assay results reported in ChEMBL document CHEMBL1201862, “PubChem BioAssay data set” (2004).
Active and inactive are the calls of the source.

What was measured:
Type in all cases: functional
[1] = target: Serine/threonine-protein kinase pim-1 (Homo sapiens, UniProt P11309)
[2] = target: Mitogen-activated protein kinase 13 (Homo sapiens, UniProt O15264)
[3] = target: Glycogen synthase kinase-3 alpha (Homo sapiens, UniProt P49840);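 note: GSK3A result taken from a broad kinome-wide kinase panel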
[4] = target: Serine/threonine-protein kinase D3 (Homo sapiens, UniProt O94806);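 note: determined within a kinase panel screen, with PRKCN as the panel member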
[5] = target: Serine/threonine-protein kinase D2 (Homo sapiens, UniProt Q9BZL6);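 note: measured against PRKD2 as one member of a kinome-wide kinase profiling panel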
[6] = target: Misshapen-like kinase 1 (Homo sapiens, UniProt Q8N4C8);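 note: kinome panel screen with MINK as the panel member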
[7] = target: Tyrosine-protein kinase ABL1 (Homo sapiens, UniProt P00519)
[8] = target: Protein kinase C gamma type (Homo sapiens, UniProt P05129)
[9] = target: Protein-tyrosine kinase 6 (Homo sapiens, UniProt Q13882)
[10] = target: RAC-gamma serine/threonine-protein kinase (Homo sapiens, UniProt Q9Y243)
[11] = target: Dual specificity tyrosine-phosphorylation-regulated kinase 4 (Homo sapiens, UniProt Q9NR20)
[12] = target: Testis-specific serine/threonine-protein kinase 2 (Homo sapiens, UniProt Q96PF2);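 note: part of the Navigating the Kinome panel, target entry STK22B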
[13] = target: ALK tyrosine kinase receptor (Homo sapiens, UniProt Q9UM73);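 note: ALK tested as one member of a kinase panel screen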
[14] = target: Testis-specific serine/threonine-protein kinase 1 (Homo sapiens, UniProt Q9BXA7)
[15] = target: High affinity nerve growth factor receptor (Homo sapiens, UniProt P04629);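 note: NTRK1 tested as one member of a kinome-wide profiling panel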
[16] = target: Calcium/calmodulin-dependent protein kinase type 1 (Homo sapiens, UniProt Q14012)
[17] = target: Fibroblast growth factor receptor 3 (Homo sapiens, UniProt P22607)
[18] = target: Serine/threonine-protein kinase 3 (Homo sapiens, UniProt Q13188);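 note: measured as one member of a kinome-wide kinase panel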
[19] = target: Ribosomal protein S6 kinase beta-1 (Homo sapiens, UniProt P23443);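 note: measured as one member of a kinome-wide profiling panel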

Measured: Ki

Sequence of ALK tyrosine kinase receptor (Q9UM73 whole entry): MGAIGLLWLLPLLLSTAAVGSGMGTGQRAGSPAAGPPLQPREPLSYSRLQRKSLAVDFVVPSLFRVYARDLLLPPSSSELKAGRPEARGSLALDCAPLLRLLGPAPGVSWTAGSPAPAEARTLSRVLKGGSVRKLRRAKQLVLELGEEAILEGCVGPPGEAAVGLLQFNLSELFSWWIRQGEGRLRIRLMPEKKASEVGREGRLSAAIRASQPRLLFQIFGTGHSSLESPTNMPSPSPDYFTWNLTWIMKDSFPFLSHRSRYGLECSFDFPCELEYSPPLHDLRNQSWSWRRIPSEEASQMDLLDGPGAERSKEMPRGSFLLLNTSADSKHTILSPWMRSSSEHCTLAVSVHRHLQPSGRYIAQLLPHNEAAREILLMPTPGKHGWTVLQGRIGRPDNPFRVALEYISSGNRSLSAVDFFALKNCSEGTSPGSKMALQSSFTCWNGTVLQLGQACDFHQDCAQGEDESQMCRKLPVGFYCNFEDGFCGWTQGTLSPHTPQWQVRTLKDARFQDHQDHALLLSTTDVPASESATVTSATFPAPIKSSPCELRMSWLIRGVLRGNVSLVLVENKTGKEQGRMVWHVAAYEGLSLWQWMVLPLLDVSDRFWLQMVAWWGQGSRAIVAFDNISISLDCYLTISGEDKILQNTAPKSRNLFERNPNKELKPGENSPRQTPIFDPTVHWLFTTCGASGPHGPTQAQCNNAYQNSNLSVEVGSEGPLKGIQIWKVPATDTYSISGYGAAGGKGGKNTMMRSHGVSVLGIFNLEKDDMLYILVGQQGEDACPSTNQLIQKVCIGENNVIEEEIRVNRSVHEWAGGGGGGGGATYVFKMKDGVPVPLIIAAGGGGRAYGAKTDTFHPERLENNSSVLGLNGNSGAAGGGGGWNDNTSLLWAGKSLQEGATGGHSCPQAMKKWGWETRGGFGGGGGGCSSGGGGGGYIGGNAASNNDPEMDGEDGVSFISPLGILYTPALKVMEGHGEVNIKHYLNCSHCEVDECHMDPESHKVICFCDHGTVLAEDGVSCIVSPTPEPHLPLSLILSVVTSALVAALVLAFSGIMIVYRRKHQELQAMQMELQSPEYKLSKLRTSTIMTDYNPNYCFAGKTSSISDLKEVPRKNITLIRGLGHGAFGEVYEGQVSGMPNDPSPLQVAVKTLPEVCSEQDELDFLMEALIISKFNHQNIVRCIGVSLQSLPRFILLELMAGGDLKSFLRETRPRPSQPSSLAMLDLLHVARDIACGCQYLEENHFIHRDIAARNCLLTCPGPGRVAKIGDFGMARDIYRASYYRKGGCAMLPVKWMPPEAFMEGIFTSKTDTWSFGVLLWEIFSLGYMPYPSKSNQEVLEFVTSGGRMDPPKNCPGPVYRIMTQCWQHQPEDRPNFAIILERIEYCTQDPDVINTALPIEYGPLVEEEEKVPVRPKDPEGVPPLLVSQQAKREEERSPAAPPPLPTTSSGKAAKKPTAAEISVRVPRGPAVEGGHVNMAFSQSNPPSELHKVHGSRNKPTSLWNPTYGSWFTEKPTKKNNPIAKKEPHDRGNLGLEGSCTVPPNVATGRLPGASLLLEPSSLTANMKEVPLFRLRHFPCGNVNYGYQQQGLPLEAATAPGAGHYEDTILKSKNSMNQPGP
Sequence of Dual specificity tyrosine-phosphorylation-regulated kinase 4 (Q9NR20 whole entry): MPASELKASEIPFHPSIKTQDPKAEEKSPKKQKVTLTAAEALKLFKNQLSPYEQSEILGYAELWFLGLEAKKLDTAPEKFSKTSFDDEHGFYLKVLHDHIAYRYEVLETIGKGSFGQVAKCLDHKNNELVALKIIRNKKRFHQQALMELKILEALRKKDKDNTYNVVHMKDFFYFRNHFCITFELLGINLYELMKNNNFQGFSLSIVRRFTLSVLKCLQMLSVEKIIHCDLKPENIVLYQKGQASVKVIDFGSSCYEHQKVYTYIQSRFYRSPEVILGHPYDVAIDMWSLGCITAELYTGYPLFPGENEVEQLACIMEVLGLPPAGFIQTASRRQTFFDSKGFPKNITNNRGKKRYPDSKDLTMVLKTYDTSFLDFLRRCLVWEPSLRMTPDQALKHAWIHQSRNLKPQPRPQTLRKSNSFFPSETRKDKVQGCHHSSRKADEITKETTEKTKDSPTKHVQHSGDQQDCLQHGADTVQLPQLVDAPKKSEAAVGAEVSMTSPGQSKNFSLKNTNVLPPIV
Sequence of Testis-specific serine/threonine-protein kinase 2 (Q96PF2 whole entry): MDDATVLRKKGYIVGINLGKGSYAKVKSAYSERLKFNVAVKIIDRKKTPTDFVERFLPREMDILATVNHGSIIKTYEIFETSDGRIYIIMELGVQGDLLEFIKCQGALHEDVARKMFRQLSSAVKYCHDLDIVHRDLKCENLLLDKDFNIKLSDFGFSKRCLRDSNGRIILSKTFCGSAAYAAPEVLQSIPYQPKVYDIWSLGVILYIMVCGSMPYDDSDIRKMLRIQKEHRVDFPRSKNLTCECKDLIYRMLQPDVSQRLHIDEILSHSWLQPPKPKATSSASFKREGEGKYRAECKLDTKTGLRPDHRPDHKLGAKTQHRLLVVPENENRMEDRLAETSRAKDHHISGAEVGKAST
Sequence of Serine/threonine-protein kinase pim-1 (P11309 whole entry): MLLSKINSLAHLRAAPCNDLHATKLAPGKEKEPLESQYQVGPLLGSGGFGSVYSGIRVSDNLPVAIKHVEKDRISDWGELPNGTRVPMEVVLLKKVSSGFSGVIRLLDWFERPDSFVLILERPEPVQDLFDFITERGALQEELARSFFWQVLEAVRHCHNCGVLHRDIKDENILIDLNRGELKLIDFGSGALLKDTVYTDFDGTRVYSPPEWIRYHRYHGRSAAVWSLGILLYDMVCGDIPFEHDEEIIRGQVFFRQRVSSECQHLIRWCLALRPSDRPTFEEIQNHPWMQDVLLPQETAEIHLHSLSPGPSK
Sequence of Ribosomal protein S6 kinase beta-1 (P23443 whole entry): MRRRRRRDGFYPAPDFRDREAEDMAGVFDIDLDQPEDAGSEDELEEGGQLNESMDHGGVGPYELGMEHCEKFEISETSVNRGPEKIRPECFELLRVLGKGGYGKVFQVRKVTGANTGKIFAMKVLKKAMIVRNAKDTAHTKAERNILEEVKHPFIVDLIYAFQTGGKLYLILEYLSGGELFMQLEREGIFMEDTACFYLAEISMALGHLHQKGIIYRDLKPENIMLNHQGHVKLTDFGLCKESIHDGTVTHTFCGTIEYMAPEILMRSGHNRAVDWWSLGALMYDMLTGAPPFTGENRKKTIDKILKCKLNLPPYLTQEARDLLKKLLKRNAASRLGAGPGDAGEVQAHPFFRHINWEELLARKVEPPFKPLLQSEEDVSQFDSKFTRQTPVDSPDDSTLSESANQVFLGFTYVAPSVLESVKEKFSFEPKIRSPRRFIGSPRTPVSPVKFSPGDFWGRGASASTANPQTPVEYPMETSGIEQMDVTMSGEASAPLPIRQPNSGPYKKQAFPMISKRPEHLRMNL
Sequence of Testis-specific serine/threonine-protein kinase 1 (Q9BXA7 whole entry): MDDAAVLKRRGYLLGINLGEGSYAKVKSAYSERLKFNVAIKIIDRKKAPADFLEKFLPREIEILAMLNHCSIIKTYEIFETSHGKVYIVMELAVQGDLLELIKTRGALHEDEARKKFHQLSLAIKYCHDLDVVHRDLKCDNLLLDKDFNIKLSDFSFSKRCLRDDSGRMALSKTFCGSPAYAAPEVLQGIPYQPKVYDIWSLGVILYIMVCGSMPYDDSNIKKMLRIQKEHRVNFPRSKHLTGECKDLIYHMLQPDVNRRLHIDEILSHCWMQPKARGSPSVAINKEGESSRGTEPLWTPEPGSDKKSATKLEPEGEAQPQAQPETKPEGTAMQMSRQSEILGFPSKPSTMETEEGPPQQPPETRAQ
Sequence of Serine/threonine-protein kinase D2 (Q9BZL6 whole entry): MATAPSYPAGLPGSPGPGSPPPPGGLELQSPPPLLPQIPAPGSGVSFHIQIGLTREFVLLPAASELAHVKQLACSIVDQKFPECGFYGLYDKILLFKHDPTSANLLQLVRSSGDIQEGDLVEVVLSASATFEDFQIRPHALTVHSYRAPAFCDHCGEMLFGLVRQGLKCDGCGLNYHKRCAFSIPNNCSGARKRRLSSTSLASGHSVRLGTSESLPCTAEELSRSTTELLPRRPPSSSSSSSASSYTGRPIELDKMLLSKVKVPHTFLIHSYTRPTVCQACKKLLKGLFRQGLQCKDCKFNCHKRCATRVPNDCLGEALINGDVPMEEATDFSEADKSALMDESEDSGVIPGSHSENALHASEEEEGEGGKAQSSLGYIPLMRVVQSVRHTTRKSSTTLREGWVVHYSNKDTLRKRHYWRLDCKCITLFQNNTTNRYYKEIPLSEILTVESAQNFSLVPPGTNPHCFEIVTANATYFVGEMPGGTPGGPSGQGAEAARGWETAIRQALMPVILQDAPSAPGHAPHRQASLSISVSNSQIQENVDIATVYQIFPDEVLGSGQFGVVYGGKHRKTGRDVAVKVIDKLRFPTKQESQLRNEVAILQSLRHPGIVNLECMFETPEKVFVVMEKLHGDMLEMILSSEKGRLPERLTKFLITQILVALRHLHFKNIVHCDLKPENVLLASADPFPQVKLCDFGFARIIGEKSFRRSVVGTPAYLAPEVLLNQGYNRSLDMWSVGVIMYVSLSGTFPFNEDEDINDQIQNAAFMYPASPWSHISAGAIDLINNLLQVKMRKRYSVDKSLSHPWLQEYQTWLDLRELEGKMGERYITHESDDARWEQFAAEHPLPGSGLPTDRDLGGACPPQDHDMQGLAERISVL
Sequence of Calcium/calmodulin-dependent protein kinase type 1 (Q14012 whole entry): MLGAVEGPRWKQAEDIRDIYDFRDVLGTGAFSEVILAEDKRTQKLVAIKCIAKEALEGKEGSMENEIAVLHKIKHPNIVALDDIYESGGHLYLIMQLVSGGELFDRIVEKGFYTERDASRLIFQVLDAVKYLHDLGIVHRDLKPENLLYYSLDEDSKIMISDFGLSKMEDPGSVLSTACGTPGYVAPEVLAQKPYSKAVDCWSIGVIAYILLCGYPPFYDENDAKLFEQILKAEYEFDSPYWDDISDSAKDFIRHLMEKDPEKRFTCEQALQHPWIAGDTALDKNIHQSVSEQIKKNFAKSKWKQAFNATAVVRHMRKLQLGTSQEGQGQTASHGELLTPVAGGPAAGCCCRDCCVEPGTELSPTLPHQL

NC1CCCCC1Nc1nccc(-c2c[nH]c3ncccc23)n1 (centres undefined)
active: [1] 501 nM | [2] 398 nM | [3] 158 nM | [4] 79.4 nM | [5] 501 nM | [6] 126 nM | [8] 251 nM | [10] 501 nM | [11] 158 nM | [12] 100 nM | [14] 15.8 nM | [15] 631 nM | [18] 251 nM | [19] 501 nM
inactive: [7] > 631 nM | [9] > 2510 nM | [13] > 1260 nM | [16] > 2000 nM | [17] > 2000 nM
